From PMC7767166, “Imidazole and Imidazolium Antibacterial Drugs Derived from Amino Acids” (Pharmaceuticals, 2020) come the findings set out here.

One data set concerns Bacillus subtilis 1904-E. The experiment in a line: Bacterial growth inhibition assay (microdilution, OD 560 nm), MIC. In kind it is cell-based. The note with it: read-out: B. subtilis MIC. The procedure:
(§1) The in vitro antibacterial activities of the synthesized compounds were examined against E. coli and B. subtilis. Bacteria were incubated in culture media with varying concentrations of the examined compound and the antibacterial properties were determined by observation of the optical density at 560 nm (bacteriostatic activity) and by the Resazurin cell viability assay (bactericidal activity). The corresponding minimal bactericidal concentration (MBC) and minimum inhibitory concentration (MIC) values that were obtained are summarized in Table 1 (please refer to Table S1 for MIC and MBC values in μM). Two bacterial strains were used in the antibacterial assays: Escherichia coli DH5α as a Gram-negative model and Bacillus subtilis 1904-E as a Gram-positive model. Both bacterial strains were donated to our laboratory and can be provided on request by contacting the corresponding authors. Both bacterial strains were incubated at 37 °C and the pre-inoculum incubation time was of 24 h. Liquid Luria-Bertani (LB) medium was used for E. coli DH5α and nutrient broth (NB) for B. subtilis. The bacteria cell bank suspensions were thawed and inoculated in the appropriate liquid broth for 24 h at 37 °C with mild agitation. A dilution from these culture solutions was used for the following tests, corresponding to an inoculum of 1 × 10^7 CFU/mL. Stock solutions of all the tested compounds were prepared in DMSO at a concentration of 100 mg/mL, aliquoted, and stored at −20 °C. (A) Bacterial growth inhibition assay: Conditions here described are for testing 6 different concentrations of the compounds, with triplicates of each condition. Therefore, 4 compounds were tested per plate. An adapted version of the microdilution method was used. Firstly, the imidazole derivatives were dissolved in the corresponding broth at 2× the highest tested concentration. Then, 100 μL of the 2× solutions were added to the first (A) and second (B) row wells of a 96-well plate. In addition, 100 μL of liquid medium had been previously added to rows B to F. Subsequent dilutions at 1:2 are prepared in rows B to F, by withdrawal of 100 μL from the previous row (more concentrated) to the next row (half diluted), mixing well. Then, 100 μL were discarded from the last row (F). By now, there are 100 μL in each well, and 100 μL of bacterial suspension at 10^7 CFU/mL were added to each well. Then, the 96-well plates were incubated for 24 h at 37 °C under mild agitation. Bacterial growth was controlled both by visual observation of the turbidity in each well and by measuring the optical density (OD) at 560 nm at time 0 h and 24 h. Results are recorded as the lowest concentration of antimicrobial agent that inhibits visible growth of the bacteria, and were compared with the OD variation of a control culture containing E. coli or B. subtilis (+ control) and of solution of the tested compounds without bacteria (- control).
(Broth dilution looks for growth in wells or tubes with falling amounts of substance.)

A further data set has as its system Escherichia coli DH5α. The data set is described as above. The note with it: read-out: E. coli MIC. The format is cell-based. Here is the method: as §1
For a further data set, the system named is HEK-293 cells. The experiment in a line: Cell proliferation assay for cytotoxicity (MTT). The format is cell-based, human. The note with it: 2 days of incubation. Here is the method: Human embryonic kidney cells, HEK-293, were chosen as a cell model to evaluate the cytotoxicity of the compounds. The HEK-293 cells were incubated in the cell culture medium with varying concentrations of the examined compound and the impact of treatment was measured using the MTT cell viability assay.
Cell culture media for cytotoxicity studies were purchased from Gibco (Grand Island, NY, USA). Fetal bovine serum (FBS) was obtained from HyClone (UT, USA). Supplements and other chemicals not listed in this section were obtained from Sigma Chemical Co. (St. Louis, MO, USA). Plastics for cell culture were supplied by Thermo Scientific BioLite (Madrid, Spain). All tested compounds were dissolved in DMSO at a concentration of 10 mM and stored at −20 °C until use. HEK-293 cell lines were maintained in Dulbecco’s modified Eagle’s medium (DMEM) containing glucose (1 g/L), glutamine (2 mM), penicillin (50 μg/mL), streptomycin (50 μg/mL), and amphotericin B (1.25 μg/mL) supplemented with 10% FBS.
In 96-well plates, 3 × 10^3 HEK-293 cells per well were seeded and incubated with serial dilutions of the tested compounds (from 200 to 0.2 μM) to a total volume of 100 μL of their growth media. The 3-(4,5-dimethylthiazol-2-yl)-2,5-diphenyltetrazolium bromide (MTT; Sigma Chemical Co.) dye reduction assay in 96-well microplates was used, as previously described. After 2 days of incubation (37 °C, 5% CO2 in a humid atmosphere), 10 μL of MTT (5 mg/mL in phosphate-buffered saline, PBS) was added to each well, and the plate was incubated for a further 3 h (37 °C). The supernatant was discarded and replaced by 100 µL of DMSO to dissolve formazan crystals. The absorbance was then read at 540 nm by Multiskan^TM FC microplate reader. For all concentrations of compound, cell viability was expressed as the percentage of the ratio between the mean absorbance of treated cells and the mean absorbance of untreated cells. Three independent experiments were performed, and the IC50 values (i.e., concentration half inhibiting cell proliferation) were graphically determined using GraphPad Prism 4 software.

A further data set deals with E. coli and B. subtilis. The experiment in a line: MBC to MIC ratio (bactericidal vs bacteriostatic). In kind it is cell-based. The note with it: from exact MBC and MIC values of Table 1. The source says: The Gram-positive cell wall is composed of a thick, multilayered peptidoglycan sheath outside of the cytoplasmic membrane, while the Gram-negative cell wall is composed of an outer membrane linked by lipoproteins to thin, mainly single-layered peptidoglycan. The peptidoglycan is located within the periplasmic space that is created between the outer and inner membranes. […] Compounds with MBC/MIC >4 are considered to be bacteriostatic. In all the cases in which we could obtain exact MBC and MIC values (Table 1, entries 2, 3, 8 and 9), their ratio was equal to or minor than four.

Data set [1] is described as follows: Solubility in media of the fluorescence studies. In kind it is physicochemical. The note with it: water and 1/1 water/bacterial cell culture medium. The procedure: Fluorescence studies were carried out using MilliQ® water and 1/1 MilliQ® water/bacterial cell culture medium, because with the pure cell culture medium, a strong broad fluorescence emission band was observed precluding an accurate analysis. […] The corresponding CACs obtained in water and in the 1/1 mixture of water/bacterial cell culture medium by fluorescence are shown in Table 2.

[2] abbreviates: 24 h, 37 °C, nutrient broth, minimum of three experiments.
Where [3] appears, read: mode of at least three experiments.
[4] abbreviates: 24 h, 37 °C, LB medium, minimum of three experiments.

Values joined by “and” are separate entries in the source; they are usually repeats but may differ in a detail not shown here. Equal entries are not always repeated. Where two headings read alike, the source gives them in different places.

By MIC is commonly meant the lowest concentration found to suppress growth. As usually defined, the IC50 is the concentration that inhibits the measured activity by half. The term melting point denotes the temperature of the solid-liquid transition.

`CCCCCCCCCCCCNC(=O)[C@H](C(C)C)n1ccnc1` [Compound 1a]: the MIC in the data set with Bacillus subtilis 1904-E (setting [2]) was 16 µg/mL; with Bacillus subtilis 1904-E (setting [3]), 48 µM; in the data set with Escherichia coli DH5α (setting [4]) it was more than 2000 µg/mL; with Escherichia coli DH5α (setting [3]), more than 6000 µM. Besides, the IC50 in the data set on HEK-293 cells (Homo sapiens, HEK293, 48 h) is 9.6 µM and 3.2 µg/mL.
`CCCCCCCCCCCCNC(=O)[C@H](C(C)C)n1cc[n+](Cc2ccccc2)c1` [Compound 1b]: the MIC in the data set on Bacillus subtilis 1904-E (setting [2]) amounted to 4 µg/mL; in the data set on Bacillus subtilis 1904-E (setting [3]), 9 µM; in the data set with Escherichia coli DH5α (setting [4]), 128 µg/mL; with Escherichia coli DH5α (setting [3]), 288 µM. Besides, the IC50 in the data set with HEK-293 cells (Homo sapiens, HEK293, 48 h) is 1.8 µM and 0.8 µg/mL. Besides, the “bactericidal or bacteriostatic (MBC to MIC ratio equal to or less than four = bactericidal)” value with E. coli and B. subtilis is reported as “true bactericidal activity”.
Turning to `CCCCCCCCCCCCNC(=O)[C@H](C(C)C)n1cc[n+](Cc2cccc(C[n+]3ccn([C@@H](C(=O)NCCCCCCCCCCCC)C(C)C)c3)c2)c1` [Compound 1c], the MIC in the data set on Bacillus subtilis 1904-E (setting [2]) was 16 µg/mL; in the data set on Bacillus subtilis 1904-E (setting [3]) it was 19 µM; with Escherichia coli DH5α (setting [4]), 256 µg/mL; in the data set on Escherichia coli DH5α (setting [3]), 269 µM. Also, the 50% inhibitory concentration (IC50) in the data set with HEK-293 cells (Homo sapiens, HEK293, 48 h) is 19 µM and 18 µg/mL. Further, the “bactericidal or bacteriostatic (MBC to MIC ratio equal to or less than four = bactericidal)” value with E. coli and B. subtilis is recorded as “true bactericidal activity”.
On to `CCCCNC(=O)[C@H](C(C)C)n1ccnc1` [Compound 2a], for which the MIC was more than 2000 µg/mL in the data set on Bacillus subtilis 1904-E (setting [2]), more than 9000 µM with Bacillus subtilis 1904-E (setting [3]), more than 2000 µg/mL in the data set with Escherichia coli DH5α (setting [4]) and more than 9000 µM in the data set on Escherichia coli DH5α (setting [3]). In the data set on HEK-293 cells (Homo sapiens, HEK293, 48 h), the IC50 is more than 45 µg/mL.
As to `CCCCNC(=O)[C@H](C(C)C)n1cc[n+](Cc2ccccc2)c1` [Compound 2b], the melting point worked out at 33 °C. For the same molecule, the MIC in the data set on Bacillus subtilis 1904-E (setting [2]) was more than 1000 µg/mL. For the same molecule, the minimal inhibitory concentration (MIC) in the data set on Bacillus subtilis 1904-E (24 h, mode of at least three experiments) is 2590 µM. In addition, the MIC in the data set on Escherichia coli DH5α (setting [4]) was more than 2000 µg/mL. Also, the MIC in the data set with Escherichia coli DH5α (setting [3]) is more than 5000 µM. For the same molecule, the concentration for half-maximal inhibition (IC50) in the data set on HEK-293 cells (Homo sapiens, HEK293, 48 h) is more than 79 µg/mL.
Consider `CCCCNC(=O)[C@H](C(C)C)n1cc[n+](Cc2cccc(C[n+]3ccn([C@@H](C(=O)NCCCC)C(C)C)c3)c2)c1` [Compound 2c], for which the melting point was determined as 85 °C. Besides, the minimum inhibitory concentration (MIC) with Bacillus subtilis 1904-E (setting [2]) amounted to 128 µg/mL. In addition, in the data set with Bacillus subtilis 1904-E (setting [3]), the minimum inhibitory concentration (MIC) stood at 180 µM. Further, the minimum inhibitory concentration (MIC) in the data set on Escherichia coli DH5α (setting [4]) was 1000 µg/mL. Besides, in the data set with Escherichia coli DH5α (setting [3]), the minimal inhibitory concentration (MIC) was determined as 1440 µM. The same molecule registered an IC50 in the data set with HEK-293 cells (Homo sapiens, HEK293, 48 h) of more than 142 µg/mL.
As to `CCCCCCCCCCCCNC(=O)[C@H](Cc1ccccc1)n1ccnc1` [Compound 3a], the melting point turned out to be 56.1 °C. Also, in the data set on Bacillus subtilis 1904-E (setting [2]), the MIC was found to be 16 µg/mL. Further, in the data set with Bacillus subtilis 1904-E (setting [3]), the minimal inhibitory concentration (MIC) was found to be 42 µM. For the same molecule, in the data set on Escherichia coli DH5α (setting [4]), the MIC amounted to 1000 µg/mL. The MIC with Escherichia coli DH5α (setting [3]) was determined as 2660 µM. Besides, in the data set on HEK-293 cells, the IC50 was less than 36 µM. Besides, in the data set with HEK-293 cells (Homo sapiens, HEK293, 48 h), the half-maximal inhibitory concentration (IC50) was 19 µM and 7.3 µg/mL.
Take `CCCCCCCCCCCCNC(=O)[C@H](Cc1ccccc1)n1cc[n+](Cc2ccccc2)c1` [Compound 3b]: the melting point was determined as 16 °C. In the data set with Bacillus subtilis 1904-E (setting [2]), the minimal inhibitory concentration (MIC) was 4 µg/mL. Moreover, the MIC in the data set on Bacillus subtilis 1904-E (setting [3]) came to 7 µM. Further, the MIC in the data set with Escherichia coli DH5α (setting [4]) was 32 µg/mL. In addition, the MIC in the data set with Escherichia coli DH5α (setting [3]) came out at 57 µM. The concentration for half-maximal inhibition (IC50) in the data set on HEK-293 cells (Homo sapiens, HEK293, 48 h) was 109 µM and 61 µg/mL. Besides, the “bactericidal or bacteriostatic (MBC to MIC ratio equal to or less than four = bactericidal)” value with E. coli and B. subtilis is “true bactericidal activity”.
`CCCCCCCCCCCCNC(=O)[C@@H](Cc1ccccc1)n1cc[n+](Cc2cccc(C[n+]3ccn([C@@H](Cc4ccccc4)C(=O)NCCCCCCCCCCCC)c3)c2)c1` [Compound 3c] gave a melting point of 60 °C. In addition, in the data set with Bacillus subtilis 1904-E (setting [2]), the MIC is 64 µg/mL. For the same molecule, in the data set with Bacillus subtilis 1904-E (setting [3]), the minimum inhibitory concentration (MIC) is 62 µM. Besides, the minimal inhibitory concentration (MIC) in the data set on Escherichia coli DH5α (setting [4]) amounted to 2000 µg/mL. Further, the minimal inhibitory concentration (MIC) with Escherichia coli DH5α (setting [3]) stood at 1990 µM. Moreover, the IC50 in the data set with HEK-293 cells is less than 36 µM. The IC50 in the data set with HEK-293 cells (Homo sapiens, HEK293, 48 h) is 36 µM and 37 µg/mL. The “bactericidal or bacteriostatic (MBC to MIC ratio equal to or less than four = bactericidal)” value with E. coli and B. subtilis was “true bactericidal activity”. For the same molecule, the solubility result in data set [1] was “solubility problems”.
